# Columns and labels:
# [1] = Partition coefficient, log P of the compound; format: physicochemical; details: octanol/water
# HL-60 = assay: Cytotoxicity against human promyelocytic leukemia HL60 cell line by MTT assay; format: cell-based
logP ([1]; read-out: LogP),logP [1],Structure (SMILES),IC50 (HL-60) [µM]
4.1,–,CC(C)CCC1=C(O)C(=O)c2ccccc2C1=O,62.1
3,–,CC(=O)OC1CC2=C(OC1(C)C)c1ccccc1C(=O)C2=O (configuration not stated),0.68
3.6,–,CC1(C)OC2=C(CC1Br)C(=O)C(=O)c1ccccc12 (configuration not stated),0.13
3.5,–,CC1(C)OC2=C(C=C1Br)C(=O)C(=O)c1ccccc12,0.2
3.2,–,CC1(C)Oc2c(c3nccnc3c3ccccc23)CC1O (configuration not stated),28.2
3.1,–,CC1(C)OC2=C(C(=O)C(=O)c3ccccc32)C(O)C1Br (configuration not stated),0.12
2.2,–,CC1(C)C[C@H](O)C2=C(O1)c1ccccc1C(=O)C2=O,0.57
5,–,CO[C@@H](C(=O)O[C@@H]1CC2=C(OC1(C)C)c1ccccc1C(=O)C2=O)c1ccccc1,0.26
7.3,–,CC(C)=CCC1=C(O[Si](C)(C)C(C)(C)C)C(=O)c2ccccc2C1=O,11.4
4.8,–,CC1(C)Oc2c(c3nc4c(nc3c3ccccc23)CCCC4)CC1O (configuration not stated),13.4
2.7,–,CC1(C)OC2=C(CC1O)C(=O)c1ccccc1C2=O (configuration not stated),1.35
4.1,–,CC1(C)OC2=C(CC1Br)C(=O)c1ccccc1C2=O (configuration not stated),1.36
6.3,–,COc1cc(C(=O)OC2=C(CC=C(C)C)C(=O)c3ccccc3C2=O)cc(OC)c1OC,8.06
1.6,–,CC(C)(O)C1CC2=C(O1)c1ccccc1C(=O)C2=O (configuration not stated),1.97
4.5,–,CC(=O)OC1=C(CC=C(C)C)C(=O)c2ccccc2C1=O,4.51
1.8,–,CC(=O)OC1=C(CC(O)C(C)(C)O)C(=O)c2ccccc2C1=O (configuration not stated),48.1
4.2,–,CC(C)CCC1=C(O)C(=O)C2=C(CCCC2)C1=O,34.6
4.4,–,COCOC1=C(CCC(C)C)C(=O)c2ccccc2C1=O,53.9
4.2,–,CC(C)=CCC1=C2NC3CCCCC3N=C2c2ccccc2C1=O (configuration not stated),15.5
3,–,CC(=O)OC1=C(CC2OC2(C)C)C(=O)c2ccccc2C1=O (configuration not stated),1.89
4.8,–,CC1(C)Oc2c(c3nccnc3c3ccccc23)CC1Br (configuration not stated),24.1
2.5,–,CC(C)(O)C1Cc2c(c3ccccc3c3nccnc23)O1 (configuration not stated),44.1
2.8,–,CCOC1CCC2=C(O1)C(=O)c1ccccc1C2=O (configuration not stated),29.7
5.1,–,CC(=O)OC1=C(CC(Br)C(C)(C)Br)C(=O)c2ccccc2C1=O (configuration not stated),2.23
6.4,–,CC1(C)CCc2c(c3ccccc3c3nc4c(nc23)CCCC4)O1,≥ 100

logP ([1]; read-out: LogP),logP [1],Structure (SMILES),IC50 (HL-60) [µM]
5,–,CO[C@@H](C(=O)O[C@H]1CC2=C(OC1(C)C)c1ccccc1C(=O)C2=O)c1ccccc1,0.11
2.4,–,CC(C)(O)C1CC(=O)c2nccnc2-c2ccccc2C(=O)O1 (configuration not stated),> 100
3.9,–,CC1(C)CCC(=O)c2nccnc2-c2ccccc2C(=O)O1,47.1
3.8,–,CC(C)C(=O)OC1CC2=C(OC1(C)C)c1ccccc1C(=O)C2=O (configuration not stated),0.24
3.7,–,O=C1C2=C(OC(c3ccccc3)C2)C(=O)c2ccccc21 (configuration not stated),2.65
4.6,–,CC1(C)CCC2=C(O1)c1ccccc1/C(=N/O)C2=O,3.2
3.6,–,Cc1ccc(CC2=C(O)C(=O)c3ccccc3C2=O)o1,68.2
4.7,–,O=C1C2=C(OC(c3ccccc3)CC2)C(=O)c2ccccc21 (configuration not stated),22.9
2.7,–,CC(C)(O)C1Cc2c(O)c([N+](=O)[O-])c3ccccc3c2O1 (configuration not stated),47
3.4,–,CC(C)(O[N+](=O)[O-])C1CC2=C(O1)C(=O)c1ccccc1C2=O (configuration not stated),1.24
3.5,–,CC(=O)OC1=C(CC(Br)C(C)(C)O)C(=O)c2ccccc2C1=O (configuration not stated),0.52
3.2,–,CC(C)=CC1=C(O)C(=O)c2ccccc2C1=O,27.7
2,–,CC(C)(O)C1CC2=C(O1)C(=O)c1ccccc1C2=O (configuration not stated),1.85
–,9.9,CCCCCCCCCCCC(=O)OC1=C(CC=C(C)C)C(=O)c2ccccc2C1=O,26.3
2.2,–,CC1(C)C[C@@H](O)C2=C(O1)c1ccccc1C(=O)C2=O,0.55
5.7,–,CC(=O)OC1Cc2c(c3ccccc3c3nc4c(nc23)CCCC4)OC1(C)C (configuration not stated),24.2
3.2,–,CC(C)(Br)C1CC2=C(O1)c1ccccc1C(=O)C2=O (configuration not stated),0.7
4.2,–,CC(C)(O)C1Cc2c(c3ccccc3c3nc4c(nc23)CCCC4)O1 (configuration not stated),31.9
8.3,–,CCCCCCCCCCCC(=O)OC1CC2=C(OC1(C)C)c1ccccc1C(=O)C2=O (configuration not stated),0.26
4.7,–,CC1(C)CCc2c(c3ccccc3c3nccnc23)O1,23.7
4.7,–,CC1(C)OC2=C(CC1OC(=O)c1ccc(C#N)cc1)C(=O)C(=O)c1ccccc12 (racemic),0.13
5.8,–,CC1(C)OC2=C(CC1OC(=O)c1ccc(Br)cc1)C(=O)C(=O)c1ccccc12 (racemic),0.45
3.5,–,CC1(C)CCC2=C(O1)C(=O)c1ccccc1C2=O [ALPHA-LAPACHONE],13.5
3.4,–,C=C(C)C1CC2=C(O1)C(=O)c1ccccc1C2=O (stereo not drawn) [DEHYDROISO-ALPHA-LAPACHONE],1.46
3.2,–,CC1(C)CCC2=C(O1)c1ccccc1C(=O)C2=O [LAPACHONE],0.27

Structure (SMILES),logP ([1]; read-out: LogP),logP [1],IC50 (HL-60) [µM]
CC(C)=CCC1=C(O)C(=O)c2ccccc2C1=O [LAPACHOL],4.1,–,3.18

# — ChEMBL document CHEMBL1141372, “Synthesis and pharmacophore modeling of naphthoquinone derivatives with cytotoxic activity in human promyelocytic leukemia HL-60 cell line” (J Med Chem, 2007)
